Source: US20110178070A1, “PI3K/mTOR INHIBITORS” (TAKEDA PHARMACEUTICAL COMPANY LIMITED, priority 2008, published 2011)
Read-outs that look alike come from different tables or passages of the source.

Legend:
[1] = biological target: T1, PI3Kalpha (PIK3CA/PIK3R1, p110 alpha/p85 alpha) (Homo sapiens, UniProt P42336); assay: Adapta universal kinase assay, inhibition of PI3Kalpha (Example B); type: biochemical
T1 construct: recombinant human, full length, N-terminal His-tagged phosphoinositide-3-kinase catalytic subunit alpha polypeptide; His (N); purchased Invitrogen Corp. PV4788; host or cells: insect cells
Text: In contrast to ATP depletion assays, the Adapta™ assay is extremely sensitive to ADP formation such that a majority of the signal change occurs in the first 10-20% conversion of ATP to ADP. This makes the Adapta™ universal kinase assay ideally suited for use with low activity kinases.
The principle of the Adapta™ universal kinase assay is outlined below. The assay itself can be divided into two phases: a kinase reaction phase, and an ADP detection phase. In the kinase reaction phase, all components required for the kinase reaction are added to the well, and the reaction is allowed to incubate for 60 minutes. After the reaction, a detection solution consisting of a europium labeled anti-ADP antibody, an Alexa Fluor® 647 labeled ADP tracer, and EDTA (to stop the kinase reaction) is added to the assay well. ADP formed by the kinase reaction (in the absence of an inhibitor) will displace the Alexa Fluor® 647 labeled ADP tracer from the antibody, resulting in a decrease in the TR-FRET signal.
ADP formation is determined by calculating the emission ratio from the assay well. The emission ratio is calculated by dividing the intensity of the tracer (acceptor) emission by the intensity of the Eu (donor) emission at 615 nm as shown in the equation below.
Since the Adapta™ technology measures ADP formation (i.e. conversion of ATP to ADP) it can be used to measure any type of ATP hydrolysis, including intrinsic ATPase activity of kinases. In this case, the substrate is water, not a lipid or peptide (Kashem, et al., 2007, J. Biomol. Screen. 12, 1, 70-83).
The combination of recombinant human, full length, N-terminal His-tagged phosphoinositide-3-kinase catalytic subunit alpha polypeptide ([…], PI3Kalpha), expressed in and purified from insect cells along with co-expressed recombinant, full length, untagged phosphoinositide-3-kinase regulatory subunit 1 (p85 alpha) (combination also known as PIK3CA/PIK3R1; Invitrogen Corp. Cat # PV4788) was used as the enzyme for this assay.
The test compounds are screened at 1% DMSO (final) in the well. […] The PIP2:PS Substrate/Kinase Mixture was diluted 2× to working concentration in Kinase Buffer containing 50 mM HEPES pH 7.5, 0.1% CHAPS, and 1 mM EGTA. […] The Detection Mix was prepared in TR-FRET Dilution Buffer.
After the 1 hour Kinase Reaction incubation at room temperature, 5 μL of Detection Mix was added, followed by another 30 sec plate shake to ensure mixing, and the Detection Mix was allowed to equilibrate for 1 hour at room temperature.
Lipid substrates are prepared by creating lipid vesicles. In some cases, these vesicles include a carrier lipid, such as phosphatidylserine (PS). In the assay conditions section above, “PIP2:PS” refers to large unilamellar vesicles (LUVs) containing five mole percent L-α-Phosphatidylinositol-4,5-bisphosphate (PIP2) and ninety-five percent phosphatidylserine (PS), and the concentration listed refers only to the PIP2 substrate, not the PS carrier lipid.

mTOR = mTOR (Homo sapiens, UniProt P42345); assay: Z-Lyte biochemical assay, inhibition of mTOR (Example A);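 also: synthetic Ser/Thr peptide with coumarin–fluorescein FRET pair, phosphorylation protects from protease cleavage, coumarin/fluorescein emission ratio after 400 nm excitation, 1 h kinase reaction, 10-point 3-fold titrations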
Protocol: The inhibitory property of a compound relative to mTOR catalysis was determined by using the Z-Lyte™ biochemical assay conducted by Invitrogen Corporation (Madison, Wis.), which employs a fluorescence-based, coupled-enzyme format and is based on the differential sensitivity of phosphorylated and non-phosphorylated peptides to proteolytic cleavage. The peptide substrate is labeled with two fluorophores—one at each end—that make up a FRET pair.
In the primary reaction, the kinase transfers the gamma-phosphate of ATP to a single tyrosine, serine or threonine residue in a synthetic FRET-peptide. In the secondary reaction, a site-specific protease recognizes and cleaves non-phosphorylated FRET-peptides. Phosphorylation of FRET-peptides suppresses cleavage by the Development Reagent. Cleavage disrupts FRET between the donor (i.e., coumarin) and acceptor (i.e., fluorescein) fluorophores on the FRET-peptide, whereas uncleaved, phosphorylated FRET-peptides maintain FRET. A ratio metric method, which calculates the ratio (the Emission Ratio) of donor emission to acceptor emission after excitation of the donor fluorophore at 400 nm, is used to quantitate reaction progress, as shown in the equation below.
A significant benefit of this ratio metric method for quantitating reaction progress is the elimination of well-to-well variations in FRET-peptide concentration and signal intensities. […] Both cleaved and uncleaved FRET-peptides contribute to the fluorescence signals and therefore to the Emission Ratio. The extent of phosphorylation of the FRET-peptide can be calculated from the Emission Ratio.
Recombinant human mTOR enzyme (amino acids 1360-2549), GST-tagged, expressed in and purified from insect cells (Invitrogen Corp. Cat. #PV4753; also known as FRAP1) was used for the assay. The 2×FRAP1 (mTOR)/Ser/Thr 11 Peptide Mixture (Invitrogen Corp.) was prepared in buffer containing 50 mM HEPES pH 7.5, 0.01% BRIJ-35, 10 mM MnCl2, 1 mM EGTA, 2 mM DTT, and 0.02% NaN3. The final 10 μL Kinase Reaction consisted of 7.2-58.1 ng FRAP1 (mTOR) and 2 μM Ser/Thr 11 Peptide in buffer containing 50 mM HEPES pH 7.5, 0.01% BRIJ-35, 5 mM MgCl2, 5 mM MnCl2, 1 mM EGTA, 1 mM DTT, and 0.01% NaN3.
Test compounds are screened in 1% DMSO (final) in the well. For 10 point titrations, 3-fold serial dilutions are conducted from the starting concentration. The Ser/Thr 11 Peptide/Kinase Mixture was diluted to a 2× working concentration in buffer containing 50 mM HEPES pH 7.5, 0.01% BRIJ-35, 10 mM MnCl2, 1 mM EGTA, 2 mM DTT, and 0.02% NaN3. The ATP solution was diluted to a 4× working concentration in buffer containing 50 mM HEPES pH 7.5, 0.01% BRIJ-35, 10 mM MgCl2, and 1 mM EGTA.
After the 1 hour Kinase Reaction incubation, 5 μL of a 1:16 dilution of Development Reagent B was added, and the development reaction was allowed to proceed for an additional 1 hour at room temperature. The assay plate was then read on a fluorescence plate reader and the data analyzed as outlined above.
IC50 values were calculated by non-linear least squares curve fitting using XLfit from IDBS to fit the results to model number 205 (sigmoidal dose-response model).

[2] = Table 1, 25 μM ATP, read-out: IC50 (nM) PI3Kα
[3] = IC50 (nM) mTOR, Table 1, 10 μM ATP

T1 sequence (P42336 whole entry): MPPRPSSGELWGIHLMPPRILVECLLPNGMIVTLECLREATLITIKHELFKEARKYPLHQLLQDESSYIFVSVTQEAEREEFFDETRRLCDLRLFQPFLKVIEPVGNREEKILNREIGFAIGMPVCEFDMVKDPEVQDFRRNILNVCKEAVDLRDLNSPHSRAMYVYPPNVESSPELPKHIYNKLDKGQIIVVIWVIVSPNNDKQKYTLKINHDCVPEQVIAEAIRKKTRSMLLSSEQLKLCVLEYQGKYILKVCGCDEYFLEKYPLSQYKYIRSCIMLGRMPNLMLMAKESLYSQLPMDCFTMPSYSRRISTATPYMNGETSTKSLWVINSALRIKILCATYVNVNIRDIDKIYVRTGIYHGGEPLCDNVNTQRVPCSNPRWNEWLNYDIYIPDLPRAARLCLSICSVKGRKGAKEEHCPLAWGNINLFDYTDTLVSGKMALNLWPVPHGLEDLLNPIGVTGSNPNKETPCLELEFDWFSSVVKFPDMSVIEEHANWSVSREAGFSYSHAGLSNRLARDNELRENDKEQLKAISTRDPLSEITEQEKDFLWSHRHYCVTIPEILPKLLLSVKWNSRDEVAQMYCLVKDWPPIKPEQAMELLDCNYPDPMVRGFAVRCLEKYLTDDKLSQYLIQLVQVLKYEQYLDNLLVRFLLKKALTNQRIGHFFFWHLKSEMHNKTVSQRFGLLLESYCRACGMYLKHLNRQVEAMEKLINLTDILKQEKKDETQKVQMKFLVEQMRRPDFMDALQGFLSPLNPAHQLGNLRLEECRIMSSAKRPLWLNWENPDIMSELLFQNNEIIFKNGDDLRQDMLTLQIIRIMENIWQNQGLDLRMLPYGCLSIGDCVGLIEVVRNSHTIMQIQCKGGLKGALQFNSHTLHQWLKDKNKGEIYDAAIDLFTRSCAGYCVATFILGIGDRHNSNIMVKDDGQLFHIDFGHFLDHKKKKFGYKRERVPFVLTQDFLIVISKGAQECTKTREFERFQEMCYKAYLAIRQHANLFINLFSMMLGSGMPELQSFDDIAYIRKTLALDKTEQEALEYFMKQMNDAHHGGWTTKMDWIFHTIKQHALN
T1 sequence (P27986 whole entry partner): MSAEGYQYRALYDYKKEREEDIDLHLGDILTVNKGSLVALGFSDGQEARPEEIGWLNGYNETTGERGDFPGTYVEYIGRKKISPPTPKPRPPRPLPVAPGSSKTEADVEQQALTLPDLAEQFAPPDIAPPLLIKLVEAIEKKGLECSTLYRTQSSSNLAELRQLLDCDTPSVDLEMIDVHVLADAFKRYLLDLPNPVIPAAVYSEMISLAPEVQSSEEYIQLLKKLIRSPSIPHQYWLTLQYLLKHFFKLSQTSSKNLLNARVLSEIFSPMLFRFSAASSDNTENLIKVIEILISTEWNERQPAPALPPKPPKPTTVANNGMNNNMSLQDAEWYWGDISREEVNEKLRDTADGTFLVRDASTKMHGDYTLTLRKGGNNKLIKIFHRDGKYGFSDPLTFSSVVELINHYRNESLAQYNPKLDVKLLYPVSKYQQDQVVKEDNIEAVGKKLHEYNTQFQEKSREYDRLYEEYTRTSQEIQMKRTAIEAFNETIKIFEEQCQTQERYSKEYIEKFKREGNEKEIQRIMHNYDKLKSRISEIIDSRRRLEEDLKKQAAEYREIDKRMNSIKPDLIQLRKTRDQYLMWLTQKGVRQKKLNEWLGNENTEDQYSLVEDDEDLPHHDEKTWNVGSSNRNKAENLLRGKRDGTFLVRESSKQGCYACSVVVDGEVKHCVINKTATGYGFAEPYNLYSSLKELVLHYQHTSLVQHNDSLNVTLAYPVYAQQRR
Sequence of mTOR (P42345 1360-2549): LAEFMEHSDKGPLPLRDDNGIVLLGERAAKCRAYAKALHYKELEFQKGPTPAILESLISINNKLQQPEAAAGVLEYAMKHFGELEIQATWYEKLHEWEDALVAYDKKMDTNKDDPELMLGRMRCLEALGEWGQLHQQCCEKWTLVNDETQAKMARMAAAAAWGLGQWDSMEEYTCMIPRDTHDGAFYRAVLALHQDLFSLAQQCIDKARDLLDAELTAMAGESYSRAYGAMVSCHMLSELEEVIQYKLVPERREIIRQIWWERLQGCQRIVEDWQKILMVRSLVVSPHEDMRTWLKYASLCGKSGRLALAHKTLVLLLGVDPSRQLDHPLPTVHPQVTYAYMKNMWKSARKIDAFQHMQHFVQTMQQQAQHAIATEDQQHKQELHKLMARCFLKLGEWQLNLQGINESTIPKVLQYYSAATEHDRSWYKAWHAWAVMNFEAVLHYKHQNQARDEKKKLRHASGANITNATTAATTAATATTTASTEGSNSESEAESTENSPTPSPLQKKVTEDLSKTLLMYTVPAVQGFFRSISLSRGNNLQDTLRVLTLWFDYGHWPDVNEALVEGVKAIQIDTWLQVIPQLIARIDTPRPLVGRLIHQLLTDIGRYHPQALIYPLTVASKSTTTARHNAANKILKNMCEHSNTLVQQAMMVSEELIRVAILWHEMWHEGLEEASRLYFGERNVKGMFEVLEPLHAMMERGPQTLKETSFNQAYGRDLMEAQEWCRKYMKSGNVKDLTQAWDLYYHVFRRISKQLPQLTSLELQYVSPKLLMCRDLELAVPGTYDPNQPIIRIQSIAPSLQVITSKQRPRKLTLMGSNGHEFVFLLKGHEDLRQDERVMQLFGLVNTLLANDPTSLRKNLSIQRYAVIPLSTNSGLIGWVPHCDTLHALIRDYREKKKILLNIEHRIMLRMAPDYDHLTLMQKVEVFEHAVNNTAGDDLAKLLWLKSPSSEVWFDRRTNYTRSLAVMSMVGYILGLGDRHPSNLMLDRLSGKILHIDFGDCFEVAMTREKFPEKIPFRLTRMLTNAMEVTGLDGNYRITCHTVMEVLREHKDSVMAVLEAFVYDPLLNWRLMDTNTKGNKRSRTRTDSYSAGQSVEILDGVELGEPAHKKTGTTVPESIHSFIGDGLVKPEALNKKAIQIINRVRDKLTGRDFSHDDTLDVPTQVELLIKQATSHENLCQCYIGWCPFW

Compound: CC(=O)Nc1nc2ccc(-c3ccc(C(C)(C)C#N)cc3)nc2s1 [Example 5, N-(5-(4-(2-Cyanopropan-2-yl)phenyl)thiazolo[5,4-b]pyridin-2-yl)acetamide]
- IC50 [1, 2]: > 1000 nM
- IC50 (mTOR; [3]): > 1000 nM

Compound: CC(=O)Nc1nc2ccc(-c3cccc4[nH]ccc34)cc2s1 [Example 14, N-(6-(1H-Indol-4-yl)benzo[d]thiazol-2-yl)acetamide]
- IC50 [1, 2]: > 1000 nM
- IC50 (mTOR; [3]): > 1000 nM

Compound: CC(=O)Nc1nc2ccc(-c3ccc4[nH]cc(C#N)c4c3)cc2s1 [Example 16, N-(6-(3-Cyano-1H-indol-5-yl)benzo[d]thiazol-2-yl)acetamide]
- IC50 [1, 2]: > 1000 nM
- IC50 (mTOR; [3]): 100 to 1000 nM

Compound: CC(=O)Nc1nc2ccc(-c3ccc4c(c3)NC(=O)CNC4=O)cc2s1 [Example 21, N-(6-(2,5-Dioxo-2,3,4,5-tetrahydro-1H-benzo[e][1,4]diazepin-8-yl)benzo[d]thiazol-2-yl)acetamide]
- IC50 [1, 2]: > 1000 nM
- IC50 (mTOR; [3]): > 1000 nM

Compound: CC(=O)Nc1nc2ccc(-c3cnc4cc[nH]c4c3)nc2s1 [Example 25, N-(5-(1H-Pyrrolo[3,2-b]pyridin-6-yl)thiazolo[5,4-b]pyridin-2-yl)acetamide]
- IC50 (mTOR; [3]): < 100 nM

Compound: CC(=O)Nc1nc2ccc(-c3ccc(S(C)(=O)=O)cc3)nc2s1 [Example 26, N-(5-(4-(Methylsulfonyl)phenyl)thiazolo[5,4-b]pyridine-2-yl)acetamide]
- IC50 [1, 2]: > 1000 nM
- IC50 (mTOR; [3]): > 1000 nM

Compound: CONC(=O)c1cccc(-c2ccc3nc(NC(C)=O)sc3n2)c1 [Example 27, 3-(2-Acetamidothiazolo[5,4-b]pyridin-5-yl)-N-methoxybenzamide]
- IC50 (mTOR; [3]): > 1000 nM

Compound: CNS(=O)(=O)c1ccc(-c2ccc3nc(NC(C)=O)sc3n2)cc1 [Example 28, N-(5-(4-(N-Methylsulfamoyl)phenyl)thiazolo[5,4-b]pyridine-2-yl)acetamide]
- IC50 [1, 2]: > 1000 nM
- IC50 (mTOR; [3]): > 1000 nM

Compound: CC(=O)Nc1nc2ccc(-c3ccc(NS(C)(=O)=O)cc3)nc2s1 [Example 29, N-(5-(4-(Methylsulfonamido)phenyl)thiazolo[5,4-b]pyridin-2-yl)acetamide]
- IC50 [1, 2]: 100 to 1000 nM
- IC50 ([1]; exact value in text, read-out: IC50 value for PI3K): 310 nM
- IC50 (mTOR; [3]): 100 to 1000 nM
- IC50 (mTOR; IC50 value for mTOR, exact value in text): 790 nM

Compound: CONC(=O)c1ccc(-c2ccc3nc(NC(C)=O)sc3n2)cc1 [Example 30, 4-(2-Acetamidothiazolo[5,4-b]pyridin-5-yl)-N-methoxybenzamide]
- IC50 (mTOR; [3]): 100 to 1000 nM

Compound: CC(=O)Nc1nc2ccc(-c3ccc4c(c3)CC(=O)N4)nc2s1 [Example 31, N-(5-(2-oxoindolin-5-yl)thiazolo[5,4-b]pyridin-2-yl)acetamide]
- IC50 (mTOR; [3]): 100 to 1000 nM

Compound: CC(=O)Nc1nc2ccc(-c3cc(NS(C)(=O)=O)c4[nH]ccc4c3)cc2s1 [Example 32, N-(6-(7-(Methylsulfonamido)-1H-indol-5-yl)benzo[d]thiazol-2-yl)acetamide]
- IC50 [1, 2]: > 1000 nM
- IC50 (mTOR; [3]): > 1000 nM

Compound: CC(=O)Nc1nc2ccc(-c3ccncc3)nc2s1 [Example 33, N-(5-(Pyridin-4-yl)thiazolo[5,4-b]pyridin-2-yl)acetamide]
- IC50 (mTOR; [3]): > 1000 nM

Compound: CC(=O)Nc1nc2ccc(-c3ccccc3N)nc2s1 [Example 34, N-(5-(2-Aminophenyl)thiazolo[5,4-b]pyridin-2-yl)acetamide]
- IC50 (mTOR; [3]): > 1000 nM

Compound: CNC(=O)c1ccc(-c2ccc3nc(NC(C)=O)sc3n2)cc1 [Example 35, 4-(2-Acetamidothiazolo[5,4-b]pyridin-5-yl)-N-methylbenzamide]
- IC50 (mTOR; [3]): < 100 nM

Compound: CC(=O)Nc1ccc(-c2ccc3nc(NC(C)=O)sc3n2)cc1 [Example 36, N-(5-(4-Acetamidophenyl)thiazolo[5,4-b]pyridin-2-yl)acetamide]
- IC50 (mTOR; [3]): 100 to 1000 nM

Compound: CC(=O)Nc1nc2ccc(-c3ccc(C(=O)NC4CC4)cc3)nc2s1 [Example 37, 4-(2-Acetamidothiazolo[5,4-b]pyridin-5-yl)-N-cyclopropylbenzamide]
- IC50 (mTOR; [3]): 100 to 1000 nM

Compound: CC(=O)Nc1nc2ccc(-c3ccc(C(N)=O)cc3)nc2s1 [Example 38, 4-(2-Acetamidothiazolo[5,4-b]pyridin-5-yl)benzamide]
- IC50 (mTOR; [3]): < 100 nM

Compound: CC(=O)Nc1ccc(-c2ccc3nc(NC(C)=O)sc3c2)cc1 [Example 39, N-(4-(2-Acetamidobenzo[d]thiazol-6-yl)phenyl)acetamide]
- IC50 (mTOR; [3]): 100 to 1000 nM

Compound: CNC(=O)c1cccc(-c2ccc3nc(NC(C)=O)sc3c2)c1 [Example 40, 3-(2-Acetamidobenzo[d]thiazol-6-yl)-N-methylbenzamide]
- IC50 (mTOR; [3]): > 1000 nM

Compound: CC(=O)Nc1cccc(-c2ccc3nc(NC(C)=O)sc3c2)c1 [Example 41, N-(3-(2-Acetamidobenzo[d]thiazol-6-yl)phenyl)acetamide]
- IC50 [1, 2]: > 1000 nM
- IC50 (mTOR; [3]): > 1000 nM

Compound: CC(=O)Nc1nc2ccc(-c3ccc(-c4nnc[nH]4)cc3)nc2s1 [Example 42, N-(5-(4-(4H-1,2,4-Triazol-3-yl)phenyl)thiazolo[5,4-b]pyridin-2-yl)acetamide]
- IC50 (mTOR; [3]): < 100 nM

Compound: CCS(=O)(=O)Nc1cc(-c2ccc3nc(NC(C)=O)sc3n2)cnc1Cl [Example 47, N-(5-(6-Chloro-5-(ethylsulfonamido)pyridin-3-yl)thiazolo[5,4-b]pyridin-2-yl)acetamide]
- IC50 (mTOR; [3]): < 100 nM

Compound: CC(=O)Nc1nc2ccc(-c3cnc(Cl)c(NS(C)(=O)=O)c3)cc2s1 [Example 48, N-(6-(6-Chloro-5-(methylsulfonamido)pyridin-3-yl)benzo[d]thiazol-2-yl)acetamide]
- IC50 (mTOR; [3]): < 100 nM

Compound: CC(=O)Nc1nc2ccc(-c3cnc(Cl)c(NS(=O)(=O)C4CC4)c3)nc2s1 [Example 49, N-(5-(6-Chloro-5-(cyclopropanesulfonamido)pyridin-3-yl)thiazolo[5,4-b]pyridin-2-yl)acetamide]
- IC50 (mTOR; [3]): > 1000 nM
